Assay results as given in the CheMixHub ionic liquid set.
± gives the uncertainty stated by the source.

Assay: xn = mol fraction of the nth substance listed

[Cl][Al]([Cl])[Cl] + CCCC[n+]1ccn(C)c1.[Cl-]
Conditions | electrical conductivity [S/m] | viscosity [mPa·s]
270.1 K, 101.3 kPa, x2 = 0.5263 | 0.158 ± 0.016 | –
270.1 K, 101.3 kPa, x2 = 0.5556 | 0.0827 ± 0.0083 | –
275.6 K, 101.3 kPa, x2 = 0.3333 | 0.36 ± 0.036 | –
275.6 K, 101.3 kPa, x2 = 0.3636 | 0.38 ± 0.038 | –
275.6 K, 101.3 kPa, x2 = 0.4 | 0.412 ± 0.041 | –
275.6 K, 101.3 kPa, x2 = 0.4348 | 0.408 ± 0.041 | –
276.1 K, 101.3 kPa, x2 = 0.4762 | 0.415 ± 0.042 | –
276.1 K, 101.3 kPa, x2 = 0.5 | 0.423 ± 0.042 | –
276.1 K, 101.3 kPa, x2 = 0.5556 | 0.135 ± 0.013 | –
281.1 K, 101.3 kPa, x2 = 0.5263 | 0.328 ± 0.033 | –
281.1 K, 101.3 kPa, x2 = 0.5556 | 0.189 ± 0.019 | –
284.65 K, 101.3 kPa, x2 = 0.3333 | 0.578 ± 0.058 | –
284.65 K, 101.3 kPa, x2 = 0.3636 | 0.588 ± 0.059 | –
284.65 K, 101.3 kPa, x2 = 0.4 | 0.582 ± 0.058 | –
284.65 K, 101.3 kPa, x2 = 0.4348 | 0.599 ± 0.06 | –
284.65 K, 101.3 kPa, x2 = 0.4762 | 0.608 ± 0.061 | –
284.65 K, 101.3 kPa, x2 = 0.5 | 0.616 ± 0.062 | –
293.65 K, 101.3 kPa, x2 = 0.3333 | 0.774 ± 0.077 | –
293.65 K, 101.3 kPa, x2 = 0.3636 | 0.803 ± 0.08 | –
295.65 K, 101.3 kPa, x2 = 0.4 | 0.855 ± 0.085 | –
295.65 K, 101.3 kPa, x2 = 0.4348 | 0.911 ± 0.091 | –
295.65 K, 101.3 kPa, x2 = 0.4762 | 0.883 ± 0.088 | –
295.65 K, 101.3 kPa, x2 = 0.5 | 0.916 ± 0.092 | –
296.65 K, 101.3 kPa, x2 = 0.5263 | 0.639 ± 0.064 | –
296.65 K, 101.3 kPa, x2 = 0.5556 | 0.417 ± 0.042 | –
298.15 K, 101 kPa, x1 = 0.545 | 0.98 ± 0.01 | 28.92 ± 0.38
303.15 K, 101 kPa, x1 = 0.5238 | – | 26.36 ± 0.34
303.15 K, 101 kPa, x1 = 0.5653 | – | 22.62 ± 0.3
303.15 K, 101 kPa, x1 = 0.6429 | – | 17.68 ± 0.24
303.15 K, 101 kPa, x1 = 0.643 | 1.06 ± 0.011 | 17.7 ± 0.24
303.15 K, 101 kPa, x1 = 0.667 | 1.05 ± 0.011 | –
303.15 K, 101.3 kPa, x2 = 0.3333 | 1.02 ± 0.1 | –
304.15 K, 101.3 kPa, x2 = 0.3333 | 1.05 ± 0.1 | –
304.65 K, 101.3 kPa, x2 = 0.5263 | 0.868 ± 0.087 | –
304.65 K, 101.3 kPa, x2 = 0.5556 | 0.586 ± 0.059 | –
305.15 K, 101.3 kPa, x2 = 0.3333 | 1.07 ± 0.11 | –
305.15 K, 101.3 kPa, x2 = 0.4 | 1.14 ± 0.11 | –
305.15 K, 101.3 kPa, x2 = 0.5 | 1.25 ± 0.12 | –
306.15 K, 101.3 kPa, x2 = 0.3636 | 1.16 ± 0.12 | –
306.15 K, 101.3 kPa, x2 = 0.4348 | 1.22 ± 0.12 | –
308.15 K, 101 kPa, x1 = 0.615 | 1.23 ± 0.013 | 16.72 ± 0.22
315.15 K, 101.3 kPa, x2 = 0.4762 | 1.57 ± 0.16 | –
315.15 K, 101.3 kPa, x2 = 0.5263 | 1.2 ± 0.12 | –
315.15 K, 101.3 kPa, x2 = 0.5556 | 0.851 ± 0.085 | –
316.15 K, 101.3 kPa, x2 = 0.3333 | 1.41 ± 0.14 | –
316.15 K, 101.3 kPa, x2 = 0.4 | 1.5 ± 0.15 | –
316.15 K, 101.3 kPa, x2 = 0.5 | 1.68 ± 0.17 | –
318.15 K, 101 kPa, x1 = 0.667 | 1.5 ± 0.015 | 11.35 ± 0.15
318.15 K, 101.3 kPa, x2 = 0.3636 | 1.54 ± 0.15 | –
318.15 K, 101.3 kPa, x2 = 0.4348 | 1.69 ± 0.17 | –
322.15 K, 101.3 kPa, x2 = 0.3333 | 1.62 ± 0.16 | –
323.15 K, 101 kPa, x1 = 0.5 | – | 16.06 ± 0.21
323.15 K, 101 kPa, x1 = 0.6296 | – | 11.12 ± 0.15
324.15 K, 101.3 kPa, x2 = 0.5 | 1.98 ± 0.2 | –
324.15 K, 101.3 kPa, x2 = 0.5263 | 1.5 ± 0.15 | –
324.15 K, 101.3 kPa, x2 = 0.5556 | 1.09 ± 0.11 | –
325.15 K, 101.3 kPa, x2 = 0.4 | 1.87 ± 0.19 | –
326.15 K, 101.3 kPa, x2 = 0.3636 | 1.82 ± 0.18 | –
326.15 K, 101.3 kPa, x2 = 0.4348 | 1.95 ± 0.19 | –
328.15 K, 101 kPa, x1 = 0.643 | 1.88 ± 0.019 | 9.76 ± 0.13
331.15 K, 101.3 kPa, x2 = 0.4762 | 2.25 ± 0.23 | –
332.15 K, 101.3 kPa, x2 = 0.3333 | 2 ± 0.2 | –
333.15 K, 101 kPa, x1 = 0.5238 | – | 12.28 ± 0.16
333.15 K, 101 kPa, x1 = 0.6001 | – | 9.9 ± 0.13
333.15 K, 101 kPa, x1 = 0.615 | 2.16 ± 0.022 | 9.5 ± 0.14
333.15 K, 101 kPa, x1 = 0.6296 | – | 9.15 ± 0.12
333.15 K, 101.3 kPa, x2 = 0.4 | 2.21 ± 0.22 | –
333.15 K, 101.3 kPa, x2 = 0.5 | 2.43 ± 0.24 | –
334.15 K, 101.3 kPa, x2 = 0.3636 | 2.15 ± 0.21 | –
334.15 K, 101.3 kPa, x2 = 0.4348 | 2.33 ± 0.23 | –
334.15 K, 101.3 kPa, x2 = 0.5263 | 1.94 ± 0.19 | –
334.15 K, 101.3 kPa, x2 = 0.5556 | 1.42 ± 0.14 | –
340.15 K, 101.3 kPa, x2 = 0.3333 | 2.29 ± 0.23 | –
340.15 K, 101.3 kPa, x2 = 0.4762 | 2.65 ± 0.27 | –
342.15 K, 101.3 kPa, x2 = 0.3636 | 2.45 ± 0.25 | –
342.65 K, 101.3 kPa, x2 = 0.4348 | 2.72 ± 0.27 | –
343.15 K, 101 kPa, x1 = 0.5834 | – | 8.63 ± 0.11
343.15 K, 101.3 kPa, x2 = 0.4 | 2.62 ± 0.26 | –
343.65 K, 101.3 kPa, x2 = 0.5 | 2.92 ± 0.29 | –
344.15 K, 101.3 kPa, x2 = 0.5263 | 2.39 ± 0.24 | –
345.15 K, 101.3 kPa, x2 = 0.5556 | 1.81 ± 0.18 | –
347.15 K, 101.3 kPa, x2 = 0.3333 | 2.58 ± 0.26 | –
347.15 K, 101.3 kPa, x2 = 0.4762 | 3.04 ± 0.3 | –
350.15 K, 101.3 kPa, x2 = 0.3636 | 2.86 ± 0.29 | –
351.15 K, 101.3 kPa, x2 = 0.4348 | 3.15 ± 0.32 | –
351.65 K, 101.3 kPa, x2 = 0.4 | 3.02 ± 0.3 | –
351.65 K, 101.3 kPa, x2 = 0.5 | 3.33 ± 0.33 | –
352.15 K, 101.3 kPa, x2 = 0.5263 | 2.81 ± 0.28 | –
352.15 K, 101.3 kPa, x2 = 0.5556 | 2.12 ± 0.21 | –
358.15 K, 101.3 kPa, x2 = 0.3333 | 3 ± 0.3 | –
358.15 K, 101.3 kPa, x2 = 0.4762 | 3.59 ± 0.36 | –
360.15 K, 101.3 kPa, x2 = 0.3636 | 3.29 ± 0.33 | –
360.15 K, 101.3 kPa, x2 = 0.4348 | 3.59 ± 0.36 | –
361.15 K, 101.3 kPa, x2 = 0.4 | 3.46 ± 0.35 | –
361.15 K, 101.3 kPa, x2 = 0.5 | 3.86 ± 0.39 | –
361.65 K, 101.3 kPa, x2 = 0.5263 | 3.32 ± 0.33 | –
361.65 K, 101.3 kPa, x2 = 0.5556 | 2.56 ± 0.26 | –
367.15 K, 101.3 kPa, x2 = 0.3333 | 3.41 ± 0.34 | –
367.15 K, 101.3 kPa, x2 = 0.4762 | 4.14 ± 0.41 | –
370.15 K, 101.3 kPa, x2 = 0.3636 | 3.7 ± 0.37 | –
370.15 K, 101.3 kPa, x2 = 0.4348 | 4.08 ± 0.41 | –
370.15 K, 101.3 kPa, x2 = 0.5263 | 3.76 ± 0.38 | –
370.15 K, 101.3 kPa, x2 = 0.5556 | 2.97 ± 0.3 | –
371.15 K, 101.3 kPa, x2 = 0.4 | 3.96 ± 0.4 | –
371.15 K, 101.3 kPa, x2 = 0.5 | 4.49 ± 0.45 | –
379.15 K, 101.3 kPa, x2 = 0.3333 | 4.07 ± 0.41 | –
379.15 K, 101.3 kPa, x2 = 0.4762 | 4.87 ± 0.49 | –

Conditions | electrical conductivity [S/m]
306.15 K, 101 kPa, frequency 1 MHz, x2 = 0.625 | 0.227 ± 0.0045

COC[n+]1ccn(C)c1.O=S(=O)([N-]S(=O)(=O)C(F)(F)F)C(F)(F)F + O
Conditions | viscosity [mPa·s]
283 K, 101 kPa, x1 = 0.8283 | 80.4 ± 1.9

O=Cc1ccco1 + CCCC[P+](C)(CCCC)CCCC.COS(=O)(=O)[O-]
100 kPa
Conditions | viscosity [mPa·s]
293.15 K, x2 = 0.1 | 9 ± 4
293.15 K, x2 = 0.191 | 41 ± 17
293.15 K, x2 = 0.624 | 270 ± 110
298.15 K, x2 = 0.062 | 2.33 ± 0.94
298.15 K, x2 = 0.1 | 3.5 ± 1.6
303.15 K, x2 = 0.191 | 6.7 ± 2.7
303.15 K, x2 = 0.732 | 182 ± 74
308.15 K, x2 = 0.142 | 4 ± 1.6
308.15 K, x2 = 0.317 | 12.6 ± 5.1
308.15 K, x2 = 0.624 | 58 ± 24
313.15 K, x2 = 0 | 1.17 ± 0.47
313.15 K, x2 = 0.1 | 2.6 ± 1.1
318.15 K, x2 = 0.062 | 1.64 ± 0.66
318.15 K, x2 = 0.142 | 3.5 ± 1.4
318.15 K, x2 = 0.249 | 5.7 ± 2.3
318.15 K, x2 = 0.499 | 20.5 ± 8.3
323.15 K, x2 = 0.191 | 4 ± 1.6
323.15 K, x2 = 0.249 | 4.7 ± 1.9
